Measurements from patent US20080051429A1, “USE OF 4-AMINO-PIPERIDINES FOR TREATING SLEEP DISORDERS” (priority 2006, published 2008).

Assays:
Experiment in all cases: R-SAT broad profiling
Type in all cases: cell-based
5-HT4 = biological target: T1, 5-HT4 (Homo sapiens, UniProt Q13639); conditions: read-out: pEC50/pIC50 (converted)
T1 construct: expressed in transfected cells
Method: (§1) The functional receptor assay, Receptor Selection and Amplification Technology (R-SAT), was used (with minor modifications from that previously described U.S. Pat. No. 5,707,798) to screen compounds for efficacy at the 5-HT2A receptor. Briefly, NIH3T3 cells were grown in 96 well tissue culture plates to 70-80% confluence. Cells were transfected for 12-16 hours with plasmid DNAs using superfect (Qiagen Inc.) as per manufacture's protocols. R-SAT's were generally performed with 50 ng/well of receptor and 20 ng/well of Beta-galactosidase plasmid DNA. All receptor and G-protein constructs used were in the pSI mammalian expression vector (Promega Inc) as described in U.S. Pat. No. 5,707,798. The 5HT2A receptor gene was amplified by nested PCR from brain cDNA using the oligodeoxynucleotides based on the published sequence (see Saltzman et. al. Biochem. Biophys. Res. Comm. 181:1469-78 (1991)). Large-scale transfections, cells were transfected for 12-16 hours, then trypsinized and frozen in DMSO. Frozen cells were later thawed, plated at 10,000-40,000 cells per well of a 96 well plate that contained drug. With both methods, cells were then grown in a humidified atmosphere with 5% ambient CO2 for five days. Media was then removed from the plates and marker gene activity was measured by the addition of the beta-galactosidase substrate ONPG (in PBS with 5% NP-40). The resulting colorimetric reaction was measured in a spectrophotometric plate reader (Titertek Inc.)at […]. All data were analyzed using the computer program XLFit (IDBSm). Efficacy is the percent maximal repression compared to repression by a control compound (ritanserin in the case of 5HT2A). pIC50 is the negative of the log(IC50), where IC50 is the calculated concentration in Molar that produces 50% maximal repression.
(§2) The R-SAT assay (described above in example 136) was used to investigate the selectivity of 2-(4-Methoxyphenyl)-N-(4-methylbenzyl)-N-(1-methylpiperidin-4-yl)acetamide hydrochloride.

alpha 2B = biological target: T2, alpha 2B (Homo sapiens, UniProt P18089); conditions: read-out: pEC50/pIC50 (converted)
T2 construct: expressed in transfected cells; host or cells: NIH3T3
T2 sequence (P18089 1-450): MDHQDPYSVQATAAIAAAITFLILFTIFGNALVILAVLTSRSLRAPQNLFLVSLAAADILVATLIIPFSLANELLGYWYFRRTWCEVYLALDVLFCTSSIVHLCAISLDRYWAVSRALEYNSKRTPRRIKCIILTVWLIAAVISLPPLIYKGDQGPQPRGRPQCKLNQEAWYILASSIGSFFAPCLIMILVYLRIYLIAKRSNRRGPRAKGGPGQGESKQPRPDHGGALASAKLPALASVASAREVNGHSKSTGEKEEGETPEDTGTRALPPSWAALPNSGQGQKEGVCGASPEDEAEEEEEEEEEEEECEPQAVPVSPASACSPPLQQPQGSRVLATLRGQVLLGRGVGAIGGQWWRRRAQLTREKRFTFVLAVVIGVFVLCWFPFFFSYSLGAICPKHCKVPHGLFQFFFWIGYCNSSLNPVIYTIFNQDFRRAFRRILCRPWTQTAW
Method: as §1, §2

m1 = biological target: T3, m1 (Homo sapiens, UniProt P11229); conditions: read-out: pEC50/pIC50 (converted)
T3 construct: expressed in transfected cells; host or cells: NIH3T3
T3 sequence (P11229 1-460): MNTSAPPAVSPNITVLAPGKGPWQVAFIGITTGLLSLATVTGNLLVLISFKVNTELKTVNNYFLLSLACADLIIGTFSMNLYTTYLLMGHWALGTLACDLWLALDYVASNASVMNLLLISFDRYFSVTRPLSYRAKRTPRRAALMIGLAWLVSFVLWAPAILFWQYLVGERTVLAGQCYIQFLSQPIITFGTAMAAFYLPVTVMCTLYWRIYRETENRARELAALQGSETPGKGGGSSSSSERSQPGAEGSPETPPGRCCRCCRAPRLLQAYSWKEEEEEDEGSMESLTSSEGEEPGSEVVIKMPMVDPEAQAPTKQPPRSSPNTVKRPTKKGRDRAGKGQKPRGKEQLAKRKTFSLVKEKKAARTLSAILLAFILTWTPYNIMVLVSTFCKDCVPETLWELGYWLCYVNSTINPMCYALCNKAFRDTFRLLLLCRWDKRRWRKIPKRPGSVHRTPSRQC
Method: as §1, §2

K-opiod = biological target: T4, K-opiod (Homo sapiens, UniProt P41145); conditions: agonist; read-out: pEC50/pIC50 (converted)
T4 construct: expressed in transfected cells; host or cells: NIH3T3
T4 sequence (P41145 whole entry): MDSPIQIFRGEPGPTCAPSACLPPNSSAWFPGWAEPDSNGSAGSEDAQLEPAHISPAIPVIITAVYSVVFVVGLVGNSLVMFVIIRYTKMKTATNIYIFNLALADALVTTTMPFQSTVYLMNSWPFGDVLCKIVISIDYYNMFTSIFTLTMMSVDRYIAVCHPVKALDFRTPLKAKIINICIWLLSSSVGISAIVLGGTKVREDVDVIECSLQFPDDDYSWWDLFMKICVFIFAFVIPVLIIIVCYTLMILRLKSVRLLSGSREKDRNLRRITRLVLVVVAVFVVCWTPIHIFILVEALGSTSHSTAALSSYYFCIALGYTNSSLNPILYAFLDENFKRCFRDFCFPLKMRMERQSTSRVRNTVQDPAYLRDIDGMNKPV
Method: as §1, §2

alpha 2A = biological target: T5, alpha 2A (Homo sapiens, UniProt P08913); conditions: read-out: pEC50/pIC50 (converted)
T5 construct: expressed in transfected cells; host or cells: NIH3T3
T5 sequence (P08913 1-465): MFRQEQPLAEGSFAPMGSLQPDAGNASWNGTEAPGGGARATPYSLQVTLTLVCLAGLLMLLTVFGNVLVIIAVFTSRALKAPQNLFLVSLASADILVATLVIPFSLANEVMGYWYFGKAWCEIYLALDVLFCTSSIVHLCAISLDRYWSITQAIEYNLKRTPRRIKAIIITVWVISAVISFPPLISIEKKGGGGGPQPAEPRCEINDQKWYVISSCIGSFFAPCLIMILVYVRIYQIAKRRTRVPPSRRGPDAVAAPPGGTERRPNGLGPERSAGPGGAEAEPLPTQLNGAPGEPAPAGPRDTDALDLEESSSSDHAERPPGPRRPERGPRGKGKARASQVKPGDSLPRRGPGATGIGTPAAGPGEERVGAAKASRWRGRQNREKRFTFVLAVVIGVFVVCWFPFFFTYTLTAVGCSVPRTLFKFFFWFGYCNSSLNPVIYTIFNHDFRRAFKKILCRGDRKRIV
Method: as §1, §2

beta 2 = biological target: T6, beta 2 (Homo sapiens, UniProt P07550); conditions: read-out: pEC50/pIC50 (converted)
T6 construct: expressed in transfected cells; host or cells: NIH3T3
T6 sequence (P07550 whole entry): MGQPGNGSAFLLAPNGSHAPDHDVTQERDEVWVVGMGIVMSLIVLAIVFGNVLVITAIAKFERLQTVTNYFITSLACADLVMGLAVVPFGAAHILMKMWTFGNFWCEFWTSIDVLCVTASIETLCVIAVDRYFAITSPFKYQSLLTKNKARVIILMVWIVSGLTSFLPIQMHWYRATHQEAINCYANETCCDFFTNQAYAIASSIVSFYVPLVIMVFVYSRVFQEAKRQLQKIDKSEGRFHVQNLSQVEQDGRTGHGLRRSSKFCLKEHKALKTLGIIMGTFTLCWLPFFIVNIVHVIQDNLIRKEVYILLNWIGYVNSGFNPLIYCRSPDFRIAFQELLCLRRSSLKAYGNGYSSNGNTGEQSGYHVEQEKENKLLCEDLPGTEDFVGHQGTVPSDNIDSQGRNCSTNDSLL
Method: as §1, §2

T1 sequence (Q13639 1-387 isoform Q13639-2, species assumed): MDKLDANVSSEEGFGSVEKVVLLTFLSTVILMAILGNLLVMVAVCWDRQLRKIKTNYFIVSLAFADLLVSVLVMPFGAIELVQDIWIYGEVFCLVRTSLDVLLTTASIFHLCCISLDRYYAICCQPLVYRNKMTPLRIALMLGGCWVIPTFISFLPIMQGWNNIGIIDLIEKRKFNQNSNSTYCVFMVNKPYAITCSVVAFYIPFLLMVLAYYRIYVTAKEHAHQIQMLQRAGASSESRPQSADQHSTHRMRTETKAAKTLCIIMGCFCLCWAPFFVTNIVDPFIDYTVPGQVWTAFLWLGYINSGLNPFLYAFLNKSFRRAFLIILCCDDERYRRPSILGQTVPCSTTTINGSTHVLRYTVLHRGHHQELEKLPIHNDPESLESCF

EC50 (5-HT4; agonist): > 3.16 µM
IC50 (5-HT4; inverse agonist): > 3.16 µM
EC50 (alpha 2B; agonist): > 3.16 µM
IC50 (alpha 2B; antagonist): > 3.16 µM
EC50 (m1; agonist): > 3.16 µM
IC50 (m1; antagonist): > 3.16 µM
EC50 (K-opiod): > 3.16 µM
EC50 (alpha 2A; agonist): > 3.16 µM
IC50 (alpha 2A; antagonist): > 3.16 µM
EC50 (beta 2; agonist): > 3.16 µM
IC50 (beta 2; antagonist): > 3.16 µM
Structure (SMILES): COc1ccc(CC(=O)N(Cc2ccc(C)cc2)C2CCN(C)CC2)cc1 [Example 50ELH27, 2-(4-Methoxyphenyl)-N-(4-methylbenzyl)-N-(1-methylpiperidin-4-yl)acetamide]
